# Results taken from PubChem BioAssay (NCI).
#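 Cultured in 96-well plates, cells were exposed to test compound for 48 hours across five concentrations. GI50: concentration for 50% inhibition of growth. TGI denotes the concentration required for complete inhibition of growth.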
# What was measured:
# Experiment in all cases: DTP human tumour cell line panel, 48 h
# A549 NSCLC = tested on: A549 NSCLC
# ACHN renal = tested on: ACHN renal
# HOP-62 NSCLC = tested on: HOP-62 NSCLC
# HOP-92 NSCLC = tested on: HOP-92 NSCLC
# MOLT-4 leukemia = tested on: MOLT-4 leukemia
# NCI-H226 lung = tested on: NCI-H226 lung
# NCI-H522 lung = tested on: NCI-H522 lung
# OVCAR-3 ovarian = tested on: OVCAR-3 ovarian
# SF-268 CNS = tested on: SF-268 CNS
# SW-620 colon = tested on: SW-620 colon
SMILES,GI50 (A549 NSCLC),TGI (A549 NSCLC),GI50 (ACHN renal),TGI (ACHN renal),GI50 (HOP-62 NSCLC),TGI (HOP-62 NSCLC),GI50 (HOP-92 NSCLC),TGI (HOP-92 NSCLC),GI50 (MOLT-4 leukemia),TGI (MOLT-4 leukemia),GI50 (NCI-H226 lung),TGI (NCI-H226 lung),GI50 (NCI-H522 lung),TGI (NCI-H522 lung),GI50 (OVCAR-3 ovarian),TGI (OVCAR-3 ovarian),GI50 (SF-268 CNS),TGI (SF-268 CNS),GI50 (SW-620 colon),TGI (SW-620 colon)
Cc1cccc2c1NC(=O)C2(c1ccc(O)cc1)c1ccc(O)cc1,21.1 µM,> 100 µM,12.4 µM,> 100 µM,14.8 µM,38.3 µM,1.42 µM,27.6 µM,11.8 µM,75 µM,18 µM,59 µM,12.6 µM,33.4 µM,< 0.01 µM,14 µM,19.8 µM,> 100 µM,20.8 µM,69.8 µM
C[CH2][Sn]([Cl])([CH2]C)[CH2]C,1.18 µM,5.04 µM,1.46 µM,8.27 µM,1.04 µM,4.14 µM,0.186 µM,0.689 µM,0.369 µM,2.96 µM,2.48 µM,5.36 µM,0.705 µM,3.15 µM,1.34 µM,6.61 µM,1.59 µM,7.94 µM,0.57 µM,10.9 µM
O=C(O)C1CCCCC1C(=O)Nc1nc2ccccc2[nH]1 (centres undefined),–,> 100 µM,–,> 100 µM,–,> 100 µM,–,> 100 µM,–,> 100 µM,–,> 100 µM,–,> 100 µM,–,> 100 µM,–,> 100 µM,–,> 100 µM
CC(=O)Nc1ccc(S(=O)(=O)c2ccc(NC(C)=O)cc2)cc1,> 100 µM,> 100 µM,> 100 µM,> 100 µM,> 100 µM,> 100 µM,> 100 µM,> 100 µM,> 100 µM,> 100 µM,> 100 µM,> 100 µM,> 100 µM,> 100 µM,61.8 µM,> 100 µM,–,–,> 100 µM,> 100 µM
NC(=O)OCC(COc1ccc(Cl)cc1)OC(=O)c1cc([N+](=O)[O-])cc([N+](=O)[O-])c1 (centres undefined),–,> 100 µM,–,> 100 µM,–,> 100 µM,–,> 100 µM,–,> 100 µM,–,> 100 µM,–,> 100 µM,–,> 100 µM,–,> 100 µM,–,27.6 µM
Nc1nc(Cl)nc2c1ncn2C1CCC(COP(=O)(O)OP(=O)(O)OP(=O)(O)O)O1 (centres undefined),–,78.8 µM,–,> 100 µM,–,51.1 µM,–,66.6 µM,–,> 100 µM,–,> 100 µM,–,> 100 µM,–,> 100 µM,–,> 100 µM,–,> 100 µM
O=C1C2C3CCC(C2C(=O)N1CO)C1C2C(=O)N(CO)C(=O)C2C31 (centres undefined),–,> 67.6 µM,–,> 63 µM,–,> 100 µM,–,> 100 µM,–,67.7 µM,–,> 100 µM,–,> 100 µM,–,> 100 µM,–,> 86.3 µM,–,> 67.5 µM
C/C=C(\C)C(=O)OC1C2C(C)C(=O)OC2C(O)C(C)C2C=CC(=O)C21C (centres undefined),–,61.3 µM,–,26.8 µM,–,40.3 µM,–,50.5 µM,–,33.7 µM,–,46.5 µM,–,12.5 µM,–,23.7 µM,–,56.5 µM,–,28.7 µM
O=c1[nH]c(=O)n(C2OC(CO)C(O)C2O)cc1OCc1ccccc1 (centres undefined),–,> 100 µM,–,> 100 µM,–,> 100 µM,–,> 100 µM,–,> 100 µM,–,> 100 µM,–,> 100 µM,–,> 100 µM,–,> 100 µM,–,> 71.8 µM
CN/N=C(/CC(=O)c1sc(-n2nc(-c3ccccc3)cc2-c2ccccc2)nc1C)C(=O)Nc1ccc(Cl)c(Cl)c1,–,> 100 µM,–,> 100 µM,–,> 100 µM,–,70.4 µM,–,> 100 µM,–,> 100 µM,–,> 100 µM,–,> 100 µM,–,> 100 µM,–,> 100 µM
O=c1nc(-c2ccccc2)scc1-c1ccccc1,–,> 100 µM,–,> 100 µM,–,> 100 µM,–,> 100 µM,–,> 100 µM,–,> 100 µM,–,> 100 µM,–,> 100 µM,–,> 100 µM,–,> 100 µM
Nc1ncnc2c1c(C(=O)NO)cn2C1OC(CO)C(O)C1O (centres undefined),0.462 µM,> 40.4 µM,0.203 µM,1.15 µM,0.38 µM,> 22 µM,0.205 µM,1.25 µM,0.306 µM,1.66 µM,0.6 µM,5.51 µM,0.435 µM,4.62 µM,0.278 µM,2.42 µM,0.397 µM,–,0.252 µM,> 31.7 µM
O=C(O)CP(=O)(c1ccccc1)c1ccccc1.O=C(O)CP(=O)(c1ccccc1)c1ccccc1.[Cd],17.1 µM,35.1 µM,16.1 µM,30.4 µM,18.6 µM,46.1 µM,18.4 µM,33.7 µM,33.4 µM,52.4 µM,12.7 µM,28.6 µM,0.403 µM,2.77 µM,2.56 µM,15.4 µM,37.3 µM,> 100 µM,19.6 µM,42.6 µM
Cc1csc(-c2ccc3c(c2)COC3(CCCN(C)C)c2ccc(F)cc2)c1 (centres undefined),2.02 µM,4.24 µM,1.74 µM,3.14 µM,1.67 µM,3.42 µM,1.6 µM,3.17 µM,2.55 µM,6.69 µM,1.92 µM,3.76 µM,2.06 µM,4.31 µM,1.81 µM,3.37 µM,1.68 µM,3.26 µM,1.8 µM,3.51 µM
CCCC(=O)Nc1ncnc2c1ncn2C1OC2COP(=O)(O)OC2C1OC(=O)CCC (centres undefined),> 1000 µM,> 1000 µM,> 1000 µM,> 1000 µM,> 1000 µM,> 1000 µM,–,> 1000 µM,> 1000 µM,> 1000 µM,> 1000 µM,> 1000 µM,> 1000 µM,> 1000 µM,> 1000 µM,> 1000 µM,> 1000 µM,> 1000 µM,> 1000 µM,> 1000 µM
CCNC(=O)c1ccc2c(c1)nc(-c1ccc(Cl)cc1)n2-c1cc(C(C)(C)C)[nH]n1,3.19 µM,31.9 µM,3.48 µM,13.2 µM,5.41 µM,36.2 µM,1.36 µM,7.77 µM,3.49 µM,25.1 µM,2.56 µM,9.24 µM,2.7 µM,9.6 µM,2.49 µM,7.77 µM,3.42 µM,15.4 µM,–,–
